Data: patent publication US5087573A, “Monoclonal antibody against bone alkaline phosphatase” (University of Kansas, priority 1988, dated 1992)

Target: T1, purified alkaline phosphatase from human osteosarcoma (bone isoenzyme) (Homo sapiens, UniProt P05186)
T1 construct: Human Osteosarcoma obtained from nude mice (nu/nu) was frozen at -70° C. until required; from tissue; host or cells: human osteosarcoma tumour tissue obtained from nude mice (nu/nu); enzyme purified by n-butanol extraction, acetone and ammonium sulfate precipitation, Bio Gel-HT, DEAE Sepharose and Sephacryl S-400
T1 sequence (P05186 18-502 limits assumed): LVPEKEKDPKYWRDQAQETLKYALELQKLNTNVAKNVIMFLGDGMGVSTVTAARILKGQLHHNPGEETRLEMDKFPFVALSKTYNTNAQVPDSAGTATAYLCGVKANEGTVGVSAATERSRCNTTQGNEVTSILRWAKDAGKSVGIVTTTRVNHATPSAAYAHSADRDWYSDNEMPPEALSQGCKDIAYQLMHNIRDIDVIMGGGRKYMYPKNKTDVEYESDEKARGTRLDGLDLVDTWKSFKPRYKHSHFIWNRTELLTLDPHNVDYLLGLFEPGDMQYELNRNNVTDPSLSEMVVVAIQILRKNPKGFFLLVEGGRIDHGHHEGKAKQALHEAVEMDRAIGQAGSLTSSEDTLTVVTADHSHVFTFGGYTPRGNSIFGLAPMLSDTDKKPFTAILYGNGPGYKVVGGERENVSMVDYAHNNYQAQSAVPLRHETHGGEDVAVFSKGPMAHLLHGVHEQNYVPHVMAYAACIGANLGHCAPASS
Experiment: Inhibition of alkaline phosphatase by amino acids (release of p-nitrophenol from p-nitrophenylphosphate)
Format: biochemical
Conditions: amino acid at 5 mM in the reaction mixture; 4 mM p-nitrophenylphosphate, pH 10.2
Description: The enzyme was assayed by measuring the release of p-nitrophenol from p-nitro-phenylphosphate at ambient temperature using a Gilford (model 250) recording spectrophotometer. The assay mixture (0.5 ml) contained 0.3M 2-amino-2-methyl-1-propanol, pH 10.2, 4 mM p-nitrophenylphosphate, 20 ug MgCl2 and 10 ul of diluted enzyme (u=micro). The formation of p-nitrophenol was measured spectrophotometrically at 410 nm. Units represent u moles of p-nitrophenol formed per minute at 22° C.
In order to define more clearly the isoenzyme, inhibition studies using amino acids were applied to the enzyme samples. The assay was carried out in the presence of L-homoarginine or L-phenylalanine at 5 mM concentration in the reaction mixtures respectively.
Based on the sensitivity to heat inactivation and inhibitions by L-homoarginine and L-phenylalanine, the properties of alkaline phosphatase from human osteosarcoma are consistent with those of the bone isoenzyme. It is generally considered in the art that the ALP from normal bone and osteosarcoma are probably identical.

Structure (SMILES)	inhibition at 5000 µM
N=C(N)NCCCC[C@H](N)C(=O)O [L-homoarginine]	64%
N[C@@H](Cc1ccccc1)C(=O)O [L-phenylalanine]	5%
